Reference: patent publication US20040029965A1, “Formulations for reducing or eliminating toxicity of enviromental hormones containing ursodeoxycholic acid” (priority 2000, published 2004)
Marks after values point to notes of the source that are not given here.

Assays:
Assay type in all cases: in vivo
[1] = test system: C57B1/6J mice; experiment: Electron microscopy of testes (cellular microstructures); conditions: TCDD 27.5 μg/kg + 0.5% by weight of UDCA; FIG. 10
Protocol: (§1) 2,3,7,8-tetrachlorodibenzo-p-dioxin (TCDD) dissolved in toluene (purity of 95% or more as a result of gas chromatography analysis), manufactured by Chem. Services Inc. in USA, was volatilized with nitrogen to obtain powder. The obtained powder was dissolved in a mixed solvent containing acetone and corn oil with a volume ratio of 1:6. The resulting solution each containing 110, 27.5 and 6.9 μg/kg of TCDD was subcutaneously injected to mice at a volume of 5 ml per body weight. […] The mice were supplied with the feed from 10 days before (pre-administration) to 60 days after administration of TCDD (post-administration).
Upon completion of the experiment for 60 days, the experimental animals were fasted for 24 hours and anesthetized with ether. Then, they were abdominally incised and blood was gathered from abdominal vena cava. They were sacrificed by the release of blood. Liver, kidneys, testes and epididymides were extracted and all the extracted organs were weighed. Only the testes were separately kept and observed under optical and electron microscopes. For biochemical finding test, serum was separated from blood with a centrifuge and the separated serum was analyzed with an automated blood biochemical analyzer, Dimension (Dupont, USA). Blood was put to another blood gathering bottle and then, analyzed with an automated blood cell analyzer, Celldyn (Abbott, USA). […]

[2] = test system: C57B1/6J mice; experiment: Optical microscopy of testes (histopathological findings)
Protocol: as §1
(§2) Upon completion of the experiment for 60 days, the experimental animals were fasted for 24 hours and anesthetized with ether. Then, they were abdominally incised and blood was gathered from abdominal vena cava. They were sacrificed by the release of blood. Liver, kidneys, testes and epididymides were extracted and all the extracted organs were weighed. Only the testes were separately kept and observed under optical and electron microscopes. For biochemical finding test, serum was separated from blood with a centrifuge and the separated serum was analyzed with an automated blood biochemical analyzer, Dimension (Dupont, USA). Blood was put to another blood gathering bottle and then, analyzed with an automated blood cell analyzer, Celldyn (Abbott, USA).
The extracted testes were fixed in 10% neutralized formalin buffer for 24 hours and washed with the flowing water. It was subsequently dehydrated with ethanol and cleared with xylene and then, embedded with paraffin. It was sectioned with microtome (microm is HM 440E) to a thickness of 2-3 μm and then, double stained with hematoxylin and eosin to observe under an optical microscope.

[3] = test system: C57B1/6J mice; experiment: Hematological changes in mice by a single subcutaneous injection of TCDD; design: NEU / LYM / PLT: unit not given here
Protocol: Male C57B1/6J mice of 5 weeks old having the average weight of 18-22 g which had been bred in CRJ (Charles River in Japan) were purchased and used in this example as experimental animals. Those mice were acclimated under the constant breeding condition, i.e. the temperature of 24±1° C., the humidity of 60±10% and the light and darkness cycle of 12 hours, for one week and thereafter, utilized in the experiment.
as §1, §2
The results are expressed as Mean±Standard Deviation values. For statistical analysis of the body weight, feed and water uptake, biochemical findings, hematological findings and the weight of organ in an acute toxicity test, verification was performed by one way analysis of variance (ANOVA) in case of equal distribution. In case significance was recognized in ANOVA, the Student's t-test was performed in the levels of p<0.05 and p<0.01.
For hematological findings, white blood cell (WBC), neutrophil (NEU), lymphocyte (LYM), monocyte (MONO), eosinophil (EOS), basophil (BASO) and red blood cell (RBC) counts, and hemoglobin concentration (HGB), hematocrit (HCT), mean cell volume (MCV), mean corpuscular hemoglobin (MCH), mean corpuscular hemoglobin concentration (MCHC), red blood cell distribution width (RDW) and platelet count (PLT) were measured and the results are as follows.

[4] = TCDD 6.9 μg/kg + UDCA 0.125 wt %
[5] = TCDD 6.9 μg/kg + UDCA 0.25 wt %
[6] = TCDD 27.5 μg/kg + UDCA 0.125 wt %
[7] = TCDD 27.5 μg/kg + UDCA 0.25 wt %
[8] = TCDD 27.5 μg/kg + UDCA 0.5 wt %

Structure (SMILES): C[C@H](CCC(=O)O)[C@H]1CC[C@H]2[C@@H]3[C@@H](O)C[C@@H]4C[C@H](O)CC[C@]4(C)[C@H]3CC[C@]12C [UDCA, 3α, 7β-dihydroxy-5β-cholanoic acid]
- heads of sperms, electron microphotograph [1]: Normal shapes of sperm heads were retained
- seminiferous tubules, optical microphotograph ([2]; TCDD 27.5 μg/kg + 0.5% by weight of UDCA, FIG. 3): normal seminiferous tubules were observed
- histopathological findings of testes under an optical microscope ([2]; group exposed to UDCA (with TCDD)): seminiferous tubules were found to have the similar shape to that of the solvent control
- BASO [3, 4]: 0.12 ± 0.07 10^3
- EOS [3, 4]: 0.004 ± 0.005 10^3
- HCT [3, 4]: 44.61 ± 1.14%
- HGB [3, 4]: 14.35 ± 0.37 g/dL
- LYM [3, 4]: 5.06 ± 1.70 10^3
- MCH [3, 4]: 14.87 ± 0.22 pg
- MCHC [3, 4]: 32.18 ± 0.43 g/dL
- MCV [3, 4]: 46.18 ± 0.55 fL
- MONO [3, 4]: 0.05 ± 0.06 10^3
- NEU [3, 4]: 0.32 ± 0.13 10^3
- PLT [3, 4]: 1117.7 ± 88.65 10^3
- RBC [3, 4]: 9.66 ± 0.24 10^6
- RDW [3, 4]: 20.17 ± 1.07%
- WBC [3, 4]: 5.55 ± 1.91 10^3
- BASO [3, 5]: 0.09 ± 0.04 10^3
- EOS [3, 5]: 0.003 ± 0.002 10^3
- HCT [3, 5]: 44.77 ± 1.57%
- HGB [3, 5]: 14.16 ± 0.44 g/dL
- LYM [3, 5]: 5.17 ± 1.49 10^3
- MCH [3, 5]: 15.04 ± 0.25 pg
- MCHC [3, 5]: 31.63 ± 0.58 g/dL
- MCV [3, 5]: 47.56 ± 0.81 fL
- MONO [3, 5]: 0.04 ± 0.02 10^3
- NEU [3, 5]: 0.28 ± 0.07 10^3
- PLT [3, 5]: 1141.22 ± 67.79 10^3
- RBC [3, 5]: 9.42 ± 0.37 10^6
- RDW [3, 5]: 19.73 ± 0.91%
- WBC [3, 5]: 5.68 ± 1.50 10^3
- BASO ([3]; TCDD 6.9 μg/kg + UDCA 0.5 wt %): 0.10 ± 0.06 10^3
- EOS ([3]; TCDD 6.9 μg/kg + UDCA 0.5 wt %): 0.002 ± 0.002 10^3
- HCT ([3]; TCDD 6.9 μg/kg + UDCA 0.5 wt %): 45.35 ± 0.93%
- HGB ([3]; TCDD 6.9 μg/kg + UDCA 0.5 wt %): 14.47 ± 0.29 g/dL
- LYM ([3]; TCDD 6.9 μg/kg + UDCA 0.5 wt %): 5.12 ± 1.13 10^3
- MCH ([3]; TCDD 6.9 μg/kg + UDCA 0.5 wt %): 14.98 ± 0.19 pg
- MCHC ([3]; TCDD 6.9 μg/kg + UDCA 0.5 wt %): 31.87 ± 0.41 g/dL
- MCV ([3]; TCDD 6.9 μg/kg + UDCA 0.5 wt %): 47.08 ± 0.63 fL
- MONO ([3]; TCDD 6.9 μg/kg + UDCA 0.5 wt %): 0.04 ± 0.03 10^3
- NEU ([3]; TCDD 6.9 μg/kg + UDCA 0.5 wt %): 0.34 ± 0.11 10^3
- PLT ([3]; TCDD 6.9 μg/kg + UDCA 0.5 wt %): 1112.89 ± 76.53 10^3
- RBC ([3]; TCDD 6.9 μg/kg + UDCA 0.5 wt %): 9.64 ± 0.26 10^6
- RDW ([3]; TCDD 6.9 μg/kg + UDCA 0.5 wt %): 20.19 ± 0.72%
- WBC ([3]; TCDD 6.9 μg/kg + UDCA 0.5 wt %): 5.76 ± 1.13 10^3
- BASO [3, 6]: 0.09 ± 0.04 10^3
- EOS [3, 6]: 0.002 ± 0.003 10^3
- HCT [3, 6]: 43.77 ± 1.37 %
- HGB [3, 6]: 14.64 ± 0.67 g/dL
- LYM [3, 6]: 2.06 ± 0.81 10^3
- MCH [3, 6]: 15.32 ± 0.39 pg
- MCHC [3, 6]: 33.65 ± 1.04 g/dL
- MCV [3, 6]: 45.51 ± 0.35 fL
- MONO [3, 6]: 0.02 ± 0.01 10^3
- NEU [3, 6]: 0.34 ± 0.10## 10^3
- PLT [3, 6]: 1172.44 ± 80.58## 10^3
- RBC [3, 6]: 9.61 ± 0.29 10^6
- RDW [3, 6]: 20.08 ± 1.20%
- WBC [3, 6]: 3.69 ± 0.72 10^3
- BASO [3, 7]: 0.18 ± 0.07 10^3
- EOS [3, 7]: 0.008 ± 0.007 10^3
- HCT [3, 7]: 43.65 ± 1.24 %
- HGB [3, 7]: 14.23 ± 0.55 g/dL
- LYM [3, 7]: 2.99 ± 1.06## 10^3
- MCH [3, 7]: 15.01 ± 0.44 pg
- MCHC [3, 7]: 32.58 ± 0.73 g/dL
- MCV [3, 7]: 46.09 ± 0.42 fL
- MONO [3, 7]: 0.05 ± 0.03 10^3
- NEU [3, 7]: 0.48 ± 0.09## 10^3
- PLT [3, 7]: 1069.70 ± 128.48## 10^3
- RBC [3, 7]: 9.48 ± 0.29 10^6
- RDW [3, 7]: 19.99 ± 1.08%
- WBC [3, 7]: 3.78 ± 1.19 10^3
- BASO [3, 8]: 0.14 ± 0.07 10^3
- EOS [3, 8]: 0.005 ± 0.003 10^3
- HCT [3, 8]: 44.49 ± 1.63 %
- HGB [3, 8]: 14.80 ± 0.78 g/dL
- LYM [3, 8]: 3.04 ± 0.77## 10^3
- MCH [3, 8]: 15.46 ± 0.59 pg
- MCHC [3, 8]: 33.23 ± 1.04 g/dL
- MCV [3, 8]: 46.46 ± 0.86 fL
- MONO [3, 8]: 0.05 ± 0.04 10^3
- NEU [3, 8]: 0.59 ± 0.23## 10^3
- PLT [3, 8]: 1068.14 ± 84.28## 10^3
- RBC [3, 8]: 9.57 ± 0.25 10^6
- RDW [3, 8]: 20.44 ± 0.82%
- WBC [3, 8]: 3.71 ± 0.99 10^3
